These results are taken from patent US5214046A, “Substituted aminoalkoxybenzene anti-fungicidal compositions and use” (Hoffmann-La Roche Inc., priority 1989, dated 1993).

The target in assay [1] is 2,3-epoxysqualene-lanosterol cyclase (Candida albicans, UniProt Q04782). Kind of assay: Inhibition of 2,3-epoxysqualene-lanosterol cyclase from Candida albicans (cell-free extract, 14C-squalene epoxide). Type of assay: biochemical.
Assay [2] deals with Candida albicans. In words: Agar dilution method, MIC alone and in combination with sterol biosynthesis inhibitors, FIC. Type of assay: cell-based. To be noted: for MIC: Candida albicans, 48 h, alone, 37° C., 2 days.
The mark [3] stands for this setting: C. albicans cell-free extract, pH 6.9, 30°, 1 hour, read-out: IC50 (converted).

For orientation: IC50 means the concentration at which inhibition is half-maximal. Usually MIC stands for the smallest concentration in the dilution series that meets the test's criterion for growth inhibition.

Structures can show the parent of a compound that is named as a salt. Where two headings read alike, the source gives them in different places.

Sequence of 2,3-epoxysqualene-lanosterol cyclase (Q04782 whole entry): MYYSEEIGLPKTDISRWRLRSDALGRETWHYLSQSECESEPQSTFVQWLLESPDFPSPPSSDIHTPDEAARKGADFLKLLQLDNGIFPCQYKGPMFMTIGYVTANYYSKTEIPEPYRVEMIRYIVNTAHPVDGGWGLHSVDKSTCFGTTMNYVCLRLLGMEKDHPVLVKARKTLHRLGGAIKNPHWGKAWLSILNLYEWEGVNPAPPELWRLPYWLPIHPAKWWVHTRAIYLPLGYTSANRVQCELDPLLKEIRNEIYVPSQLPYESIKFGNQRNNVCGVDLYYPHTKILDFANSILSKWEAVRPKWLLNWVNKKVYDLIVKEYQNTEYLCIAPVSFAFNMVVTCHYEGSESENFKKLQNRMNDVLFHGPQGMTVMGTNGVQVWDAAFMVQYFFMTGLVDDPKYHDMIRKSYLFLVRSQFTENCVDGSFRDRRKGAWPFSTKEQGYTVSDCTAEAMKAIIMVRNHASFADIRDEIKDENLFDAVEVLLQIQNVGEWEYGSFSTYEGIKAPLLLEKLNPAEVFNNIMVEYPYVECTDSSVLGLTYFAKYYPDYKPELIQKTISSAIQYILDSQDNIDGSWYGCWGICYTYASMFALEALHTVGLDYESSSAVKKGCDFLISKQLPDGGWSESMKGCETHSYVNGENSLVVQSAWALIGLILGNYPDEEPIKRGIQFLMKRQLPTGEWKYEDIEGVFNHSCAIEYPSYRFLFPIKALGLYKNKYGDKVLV

As for `CN(C)CCCCCOc1ccc(C(=O)c2ccccc2)cc1` [Compound 2, 4-[(5-(dimethylamino)pentyl)oxy]benzophenone], the IC50 in assay [1] (setting [3]) is 514 nM. Consider `CN(C)CCCCCCOc1ccc(C(=O)c2ccccc2)cc1` [Compound 3, 4-[(6-dimethylamino)hexyl)oxy]benzophenone hydrochloride], for which, in assay [1] (setting [3]), the IC50 was 461 nM. On the same count and under the same terms, the value for `CCN(CC)CCCCCCOc1cccc(C(=O)CCc2ccccc2)c1` [Compound 4, 3'-[[6-(diethylamino)hexyl]oxy]-3-phenypropiophenone] was 1570 nM; that for `CN(C)CCCCCCOc1ccc(C(=O)/C=C/c2ccccc2)cc1` [Compound 5, (E)-4'-[[6-(dimethylamino)hexyl]oxy]-3-phenylacrylophenone] was 1710 nM.

Consider `CN(C)CCCCCCOc1ccc(C(=O)Cc2ccccc2)cc1` [Compound 6], for which the IC50 in assay [1] (setting [3]) is 191 nM.

Turning to `CCN(CC)CCCCCCOc1ccc(C(=O)CCc2ccccc2)cc1` [Compound 7, 4'-[[6-(diethylamino)hexyl]oxy]-3-phenylpropiophenone], the IC50 in assay [1] (setting [3]) was 708 nM.

For the compound `CN(C)CCCCCCOc1ccc(C(=O)CCc2ccccc2)cc1` [Compound 8, 4'-[[6-(dimethylamino)hexyl]oxy]-3-phenylpropiophenone], the IC50 in assay [1] (setting [3]) was 990 nM. On the same count and under the same terms, next, `CCN(CC)CCCCCCOc1ccc(C(=O)c2ccccc2)cc1` [Compound 9, 4'-[[6-(diethylamino)hexyl]oxy]benzophenone]: 1020 nM. On the same count and under the same terms, next, `CN(C)CCCCCCOc1cccc(C(=O)/C=C/c2ccccc2)c1` [Compound 10, (E)-3'-[[6-(dimethylamino)hexyl]oxy]-3-phenylacrylophenone]: 6540 nM; `CN(C)CCCCCCOc1cccc(C(=O)CCc2ccccc2)c1` [Compound 11]: 2830 nM; `CN(C)CCCCCCOc1ccc(C(=O)c2ccc(F)cc2)cc1` [Compound 12, 4-[[6-(dimethylamino)hexyl]oxy]-4'-fluorobenzophenone]: 524 nM.

In the case of `CN(C)CCCCCCOc1cccc(C(=O)c2ccccc2)c1` [Compound 13, 3-[(6-(dimethylamino)hexyl)oxy]benzophenone], the IC50 in assay [1] (setting [3]) was 6150 nM. Still for that read-out and setting: the value for `CCN(CC)CCCCCCOc1ccc(C(=O)C#Cc2ccccc2)cc1` [Compound 14, 4'-[[6-(diethylamino)hexyl]oxy]-3-phenylpropiolophenone] was 8210 nM; that for `CN(C)CCCCCCOc1ccc(C(=O)c2c(F)c(F)c(F)c(F)c2F)cc1` [Compound 15, 4'-[[6-(dimethylamino)hexyl]oxy]-2,3,4,5,6-pentafluorobenzophenone] was 2140 nM. The same measure, in the same setting: the value for `CCCN(CCC)CCCCCCOc1ccc(C(=O)c2ccccc2)cc1` [Compound 16, 4-[[6-(dipropylamino)hexyl]oxy]benzophenone] was 2410 nM. In assay [1], `O=C(c1ccccc1)c1ccc(OCCCCCCN2CCC2)cc1` [Compound 17, 4-[(6-(azetidinyl)hexyl)oxy]benzophenone] showed an IC50 of 1780 nM. With `CN(C)CCCCCCCOc1ccc(C(=O)c2ccccc2)cc1` [Compound 18, 4-[[7-(dimethylamino)heptyl]oxy]benzophenone], the IC50 in assay [1] (setting [3]) is 353 nM. Same read-out and setting: next, `CN(C)CCCCCCCCOc1ccc(C(=O)c2ccccc2)cc1` [Compound 19]: 1190 nM; `CN(C)CCCCCCCCCOc1ccc(C(=O)c2ccccc2)cc1` [Compound 20, 4-[[9-(dimethylamino)nonyl]oxy]benzophenone]: 4350 nM; `CN(C)CCCCCCCCCCOc1ccc(C(=O)c2ccccc2)cc1` [Compound 21, 4-[[10-(dimethylamino)decyl]oxy]benzophenone]: 5240 nM.

Regarding `O=C(c1ccccc1)c1ccc(OCCCCCCN2CCCC2)cc1` [Compound 22, 4-[(6-(pyrrolidino)hexyl)oxy]benzophenone], in assay [1] (setting [3]), the IC50 is 967 nM. With `CN(C)CCCCCCOc1ccc(CC(=O)c2ccccc2)cc1` [Compound 23, 2-[4-[[6-(dimethylamino)hexyl]oxy]phenyl]acetophenone], the IC50 in assay [1] (setting [3]) is 560 nM.

As to `CNCCCCCCOc1ccc(C(=O)c2ccccc2)cc1` [Compound 24, 4-[[6-(methylamino)hexyl]oxy]benzophenone], the IC50 in assay [1] (setting [3]) was 963 nM. For the compound `Cc1cc(C(=O)c2ccccc2)ccc1OCCCCCCN(C)C` [Compound 25, 4-[[6-(dimethylamino)hexyl]oxy]-3-methylbenzophenone], in assay [1] (setting [3]), the IC50 is 560 nM. Same read-out and setting: next, `Cc1cccc(C(=O)c2ccc(OCCCCCCN(C)C)cc2)c1C` [Compound 26, 4-[[6-(dimethylamino)hexyl]oxy]-2',3'-dimethylbenzophenone]: 1190 nM. With `CN(C)CCCCCCOc1ccc(C(=O)c2ccc(Cl)cc2Cl)cc1` [Compound 27, 4-[[6-(dimethylamino)hexyl]oxy]-2',4'-dichlorobenzophenone], in assay [1] (setting [3]), the IC50 was 659 nM. As to `CN(C)CCCCCCOc1ccc(C(=O)c2cc(Cl)cc(Cl)c2)cc1` [Compound 28, 4-[[6-(dimethylamino)hexyl]oxy]-3',5'-dichlorobenzophenone], in assay [1] (setting [3]), the IC50 was 3800 nM. As for `CN(C)CCCCCCOc1ccc(C(=O)c2ccc([N+](=O)[O-])cc2)cc1` [Compound 29, 4-[[6-(dimethylamino)hexyl]oxy]-4'-nitrobenzophenone], in assay [1] (setting [3]), the IC50 is 756 nM. As to `CN(C)CCCCCCOc1ccc(C(=O)c2ccc(Cl)cc2Cl)cc1Cl` [Compound 30, 4-[[6-(dimethylamino)hexyl]oxy]-2',3,4'-trichlorobenzophenone], the IC50 in assay [1] (setting [3]) is 233 nM. For `C=CCN(C)CCCCCCOc1ccc(C(=O)Cc2ccccc2)cc1` [Compound 32, 4-[[6-(allylmethylamino)hexyl]oxy]-2-phenylacetophenone], the IC50 in assay [1] was 95.8 nM. The same measure, in the same setting: the value for `C=CCN(C)CCCCCCOc1ccc(C(=O)c2ccc(F)cc2)cc1` [Compound 33, 4-[[6-(allylmethylamino)hexyl]oxy]-4'-fluorobenzophenone] was 83.9 nM. On the same count and under the same terms, next, `C=CCN(C)CCCCCCOc1ccc(C(=O)c2ccccc2)cc1C` [Compound 34, 4-[[6-(allylmethylamino)hexyl]oxy]-3-methylbenzophenone]: 87.5 nM.

In assay [1], `C=CCN(C)CCCCCCOc1ccc(C(=O)c2cccc(C)c2C)cc1` [Compound 35, 4-[[6-(allylmethylamino)hexyl]oxy]-2',3'-dimethylbenzophenone] had an IC50 of 224 nM. Same read-out and setting: next, `C=CCN(C)CCCCCCOc1ccc(C(=O)c2ccc(Cl)cc2Cl)cc1` [Compound 36, 4-[[6-(allylmethylamino)hexyl]oxy]-2',4'-dichlorobenzophenone]: 131 nM. The same measure, in the same setting: the value for `C=CCN(C)CCCCCCOc1ccc(C(=O)c2cc(Cl)cc(Cl)c2)cc1` [Compound 37, 4-[[6-(allylmethylamino)hexyl]oxy]-3',5'-dichlorobenzophenone] was 809 nM; that for `C=CCN(C)CCCCCCOc1ccc(C(=O)c2ccc([N+](=O)[O-])cc2)cc1` [Compound 38, 4-[[6-(allylmethylamino)hexyl]oxy]-4'-nitrobenzophenone] was 101 nM; that for `C=CCN(C)CCCCCCOc1ccc(C(=O)c2ccccc2)cc1Cl` [Compound 39, 4-[[6-(allylmethylamino)hexyl]oxy]-3-chlorobenzophenone] was 64.8 nM. Take `C=CCN(C)CCCCCCOc1ccc(C(=O)c2ccc(Cl)cc2Cl)cc1Cl` [Compound 40, 4-[[6-(allylmethylamino)hexyl]oxy]-2',3,4'-trichlorobenzophenone]: 57.2 nM corresponded to half-maximal inhibition in assay [1] (IC50). The same measure, in the same setting: the value for `C=CCN(C)C/C=C/COc1ccc(C(=O)c2ccccc2)cc1` [Compound 41, trans-4-[[4-(allylmethylamino)-2-butenyl]oxy]benzophenone] was 62.2 nM; that for `C=CCN(C)C/C=C/COc1ccc(C(=O)c2ccc(Cl)cc2Cl)cc1` [Compound 42, trans-4-[[4-(allylmethylamino)-2-butenyl]oxy]-2',4'-dichlorobenzophenone] was 17.9 nM. Regarding `CN(C)C/C=C/COc1ccc(C(=O)c2ccccc2)cc1` [Compound 43, trans-4-[[4-(dimethylamino)-2-butenyl]oxy]benzophenone], in assay [1] (setting [3]), the IC50 is 745 nM. Still for that read-out and setting: next, `CN(C)C/C=C/COc1ccc(C(=O)c2ccc(Cl)cc2Cl)cc1` [Compound 44, trans-4-[[4-(dimethylamino)-2-butenyl]oxy]-2',4'-dichlorobenzophenone]: 178 nM. For `CC(=O)N1CCN(c2ccc(OCC3COC(Cn4ccnc4)(c4ccc(Cl)cc4Cl)O3)cc2)CC1` (centres unmarked) [Ketoconazole, reference compound], the MIC in combination stood at 0.155 µg/mL in assay [2] (C. albicans B4, Compound 6 + Ketoconazole in combination); 0.31 µg/mL in assay [2] (C. albicans B5, Compound 6 + Ketoconazole in combination); 0.155 µg/mL in assay [2] (C. albicans H12, Compound 6 + Ketoconazole in combination); 0.03 µg/mL in assay [2] (C. albicans H29, Compound 6 + Ketoconazole in combination); 0.155 µg/mL in assay [2] (C. albicans H42, Compound 6 + Ketoconazole in combination). Further, the minimal inhibitory concentration (MIC) in assay [2] (C. albicans B4) was determined as 5 µg/mL; in assay [2] (C. albicans B5), 5 µg/mL; in assay [2] (C. albicans H12) it was 5 µg/mL; in assay [2] (C. albicans H29), 0.25 µg/mL; in assay [2] (C. albicans H42) it was 10 µg/mL. With `CN(C/C=C/C#CC(C)(C)C)Cc1cccc2ccccc12` [Terbinafin, reference compound], the MIC in combination was 0.55 µg/mL in assay [2] (C. albicans B4, Compound 6 + Terbinafin in combination); 0.75 µg/mL in assay [2] (C. albicans B5, Compound 6 + Terbinafin in combination); 6.25 µg/mL in assay [2] (C. albicans H12, Compound 6 + Terbinafin in combination); 1.55 µg/mL in assay [2] (C. albicans H29, Compound 6 + Terbinafin in combination); 6.25 µg/mL in assay [2] (C. albicans H42, Compound 6 + Terbinafin in combination). The MIC in assay [2] (C. albicans B4) stood at 12.5 µg/mL; in assay [2] (C. albicans B5), 6.25 µg/mL; in assay [2] (C. albicans H12) it was 100 µg/mL; in assay [2] (C. albicans H29) it was 6.25 µg/mL; in assay [2] (C. albicans H42) it was 100 µg/mL.
